# Like-named read-outs stand apart in the source and are kept apart here. Where no end group is shown, it is not given here.
# What was measured:
# Type in all cases: cell-based
# NMUR2 Y317A = biological target: T1, NMUR2 Y317A (Homo sapiens, UniProt Q9GZQ4, Y317A); assay: IP-One assay, NMUR2 Y317A; details: mean ± S.E.M., three independent experiments (n=3), SEM, read-out: IP1 accumulation pEC50 ± S.E.M. (converted)
# T1 construct: expressed in transfected cells; host or cells: AD293 cells (Agilent)
# T1 sequence (Q9GZQ4 whole entry Y317A): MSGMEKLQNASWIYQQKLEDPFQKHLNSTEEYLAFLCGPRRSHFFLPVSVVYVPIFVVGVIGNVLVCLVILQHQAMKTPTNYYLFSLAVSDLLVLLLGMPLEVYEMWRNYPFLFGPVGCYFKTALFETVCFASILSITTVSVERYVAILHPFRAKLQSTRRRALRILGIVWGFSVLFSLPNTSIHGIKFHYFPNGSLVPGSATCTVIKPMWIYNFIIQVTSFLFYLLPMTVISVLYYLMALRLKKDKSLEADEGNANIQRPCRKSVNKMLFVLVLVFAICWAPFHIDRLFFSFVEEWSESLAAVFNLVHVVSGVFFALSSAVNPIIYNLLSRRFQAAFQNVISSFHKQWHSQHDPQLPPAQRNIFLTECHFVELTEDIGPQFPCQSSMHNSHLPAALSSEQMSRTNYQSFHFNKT
# Experimental: (§1) IP-One production was measured using the IP-One HTRF kit (Cisbio)[62]. Briefly, AD293 cells (Agilent) were grown to a density of 400,000–500,000 cells per mL and then infected with separate plasmids at a suitable concentration. The culture was collected by centrifugation 24 h after incubation at 37 °C in 5% CO2 with a Stimulation Buffer. The cell suspension was then dispensed in a white 384-well plate at a volume of 7 μl per well before adding 7 μl of ligands. The mixture was incubated for 1 h at 37 °C. IP-One-d2 and anti-IP-One Cryptate dissolved in Lysis Buffer (3 μl each) were subsequently added and incubated for 15-30 min at room temperature before measurement. Intracellular IP-One measurement was carried with the IP-One HTRF kit and EnVision multi-plate reader (PerkinElmer) according to the manufacturer’s instructions. Data were normalized to the baseline response of the ligand.
# (§2) The significance was determined with two-side, one-way ANOVA with Tukey’s test, and ^*P < 0.05 was considered statistically significant.
# NMUR1 Y125A = biological target: T2, NMUR1 Y125A (Homo sapiens, UniProt Q9HB89, Y125A); assay: IP-One assay, NMUR1 Y125A; details: mean ± S.E.M., three independent experiments (n=3), SEM, read-out: IP1 accumulation pEC50 ± S.E.M. (converted)
# T2 construct: The full-length human NMUR1 and NMUR2 were modified; expressed in transfected cells; host or cells: AD293 cells
# T2 sequence (Q9HB89 whole entry Y125A): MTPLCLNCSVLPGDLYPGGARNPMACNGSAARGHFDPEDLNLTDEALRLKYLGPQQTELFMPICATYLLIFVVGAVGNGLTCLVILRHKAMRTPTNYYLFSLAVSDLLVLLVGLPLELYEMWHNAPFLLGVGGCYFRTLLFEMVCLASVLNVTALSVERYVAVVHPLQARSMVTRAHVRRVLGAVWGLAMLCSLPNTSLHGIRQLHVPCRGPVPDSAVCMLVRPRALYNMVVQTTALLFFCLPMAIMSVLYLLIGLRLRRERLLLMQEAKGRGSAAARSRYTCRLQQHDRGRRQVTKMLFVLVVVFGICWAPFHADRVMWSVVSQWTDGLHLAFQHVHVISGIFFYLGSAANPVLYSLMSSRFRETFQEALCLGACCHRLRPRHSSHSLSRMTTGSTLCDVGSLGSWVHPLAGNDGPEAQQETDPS
# Experimental: as §1, §2
# NMUR2 F126A = biological target: T3, NMUR2 F126A (Homo sapiens, UniProt Q9GZQ4, F126A); assay: IP-One assay, NMUR2 F126A; details: mean ± S.E.M., three independent experiments (n=3), SEM, read-out: IP1 accumulation pEC50 ± S.E.M. (converted)
# T3 construct: expressed in transfected cells; host or cells: AD293 cells
# T3 sequence (Q9GZQ4 whole entry F126A): as the sequence (Q9GZQ4 whole entry Y317A) above, with F126A, A317Y counted along it
# Experimental: as §1, §2
# NMUR2 F291A = biological target: T4, NMUR2 F291A (Homo sapiens, UniProt Q9GZQ4, F291A); assay: IP-One assay, NMUR2 F291A; details: mean ± S.E.M., three independent experiments (n=3), SEM, read-out: IP1 accumulation pEC50 ± S.E.M. (converted)
# T4 construct: expressed in transfected cells; host or cells: AD293 cells
# T4 sequence (Q9GZQ4 whole entry F291A): as the sequence (Q9GZQ4 whole entry Y317A) above, with F291A, A317Y counted along it
# Experimental: as §1, §2
# NMUR2 Y213A = biological target: T5, NMUR2 Y213A (Homo sapiens, UniProt Q9GZQ4, Y213A); assay: IP-One assay, NMUR2 Y213A; details: mean ± S.E.M., three independent experiments (n=3), SEM, read-out: IP1 accumulation pEC50 ± S.E.M. (converted)
# T5 construct: expressed in transfected cells; host or cells: AD293 cells
# T5 sequence (Q9GZQ4 whole entry Y213A): as the sequence (Q9GZQ4 whole entry Y317A) above, with Y213A, A317Y counted along it
# Experimental: as §1, §2
# NMUR2 A302G = biological target: T6, NMUR2 A302G (Homo sapiens, UniProt Q9GZQ4, A302G); assay: IP-One assay, NMUR2 A302G; details: mean ± S.E.M., three independent experiments (n=3), SEM, read-out: IP1 accumulation pEC50 ± S.E.M. (converted)
# T6 construct: expressed in transfected cells; host or cells: AD293 cells
# T6 sequence (Q9GZQ4 whole entry A302G): as the sequence (Q9GZQ4 whole entry Y317A) above, with A302G, A317Y counted along it
# Experimental: as §1, §2
# NMUR1 D316A = biological target: T7, NMUR1 D316A (Homo sapiens, UniProt Q9HB89, D316A); assay: IP-One assay, NMUR1 D316A; details: mean ± S.E.M., three independent experiments (n=3), SEM, read-out: IP1 accumulation pEC50 ± S.E.M. (converted)
# T7 construct: The full-length human NMUR1 and NMUR2 were modified; expressed in transfected cells; host or cells: AD293 cells
# T7 sequence (Q9HB89 whole entry D316A): as the sequence (Q9HB89 whole entry Y125A) above, with A125Y, D316A counted along it
# Experimental: as §1, §2
# NMUR2 Y52A = biological target: T8, NMUR2 Y52A (Homo sapiens, UniProt Q9GZQ4, Y52A); assay: IP-One assay, NMUR2 Y52A; details: mean ± S.E.M., three independent experiments (n=3), SEM, read-out: IP1 accumulation pEC50 ± S.E.M. (converted)
# T8 construct: expressed in transfected cells; host or cells: AD293 cells
# T8 sequence (Q9GZQ4 whole entry Y52A): as the sequence (Q9GZQ4 whole entry Y317A) above, with Y52A, A317Y counted along it
# Experimental: as §1, §2
# NMUR1 H331A = biological target: T9, NMUR1 H331A (Homo sapiens, UniProt Q9HB89, H331A); assay: IP-One assay, NMUR1 H331A; details: mean ± S.E.M., three independent experiments (n=3), SEM, read-out: IP1 accumulation pEC50 ± S.E.M. (converted)
# T9 construct: The full-length human NMUR1 and NMUR2 were modified; expressed in transfected cells; host or cells: AD293 cells
# T9 sequence (Q9HB89 whole entry H331A): as the sequence (Q9HB89 whole entry Y125A) above, with A125Y, H331A counted along it
# Experimental: as §1, §2
# NMUR2 N306A = biological target: T10, NMUR2 N306A (Homo sapiens, UniProt Q9GZQ4, N306A); assay: IP-One assay, NMUR2 N306A; details: mean ± S.E.M., three independent experiments (n=3), SEM, read-out: IP1 accumulation pEC50 ± S.E.M. (converted)
# T10 construct: expressed in transfected cells; host or cells: AD293 cells
# T10 sequence (Q9GZQ4 whole entry N306A): as the sequence (Q9GZQ4 whole entry Y317A) above, with N306A, A317Y counted along it
# Experimental: as §1, §2
# NMUR2 R288A = biological target: T11, NMUR2 R288A (Homo sapiens, UniProt Q9GZQ4, R288A); assay: IP-One assay, NMUR2 R288A; details: mean ± S.E.M., three independent experiments (n=3), SEM, read-out: IP1 accumulation pEC50 ± S.E.M. (converted)
# T11 construct: expressed in transfected cells; host or cells: AD293 cells
# T11 sequence (Q9GZQ4 whole entry R288A): as the sequence (Q9GZQ4 whole entry Y317A) above, with R288A, A317Y counted along it
# Experimental: as §1, §2
# NMUR1 F141A = biological target: T12, NMUR1 F141A (Homo sapiens, UniProt Q9HB89, F141A); assay: IP-One assay, NMUR1 F141A; details: mean ± S.E.M., three independent experiments (n=3), SEM, read-out: IP1 accumulation pEC50 ± S.E.M. (converted)
# T12 construct: The full-length human NMUR1 and NMUR2 were modified; expressed in transfected cells; host or cells: AD293 cells
# T12 sequence (Q9HB89 whole entry F141A): as the sequence (Q9HB89 whole entry Y125A) above, with A125Y, F141A counted along it
# Experimental: as §1, §2
# NMUR2 F305A = biological target: T13, NMUR2 F305A (Homo sapiens, UniProt Q9GZQ4, F305A); assay: IP-One assay, NMUR2 F305A; details: mean ± S.E.M., three independent experiments (n=3), SEM, read-out: IP1 accumulation pEC50 ± S.E.M. (converted)
# T13 construct: expressed in transfected cells; host or cells: AD293 cells
# T13 sequence (Q9GZQ4 whole entry F305A): as the sequence (Q9GZQ4 whole entry Y317A) above, with F305A, A317Y counted along it
# Experimental: as §1, §2
# NMUR2 T203A = biological target: T14, NMUR2 T203A (Homo sapiens, UniProt Q9GZQ4, T203A); assay: IP-One assay, NMUR2 T203A; details: mean ± S.E.M., three independent experiments (n=3), SEM, read-out: IP1 accumulation pEC50 ± S.E.M. (converted)
# T14 construct: expressed in transfected cells; host or cells: AD293 cells
# T14 sequence (Q9GZQ4 whole entry T203A): as the sequence (Q9GZQ4 whole entry Y317A) above, with T203A, A317Y counted along it
# Experimental: as §1, §2
# NMUR1 M121A = biological target: T15, NMUR1 M121A (Homo sapiens, UniProt Q9HB89, M121A); assay: IP-One assay, NMUR1 M121A; details: mean ± S.E.M., three independent experiments (n=3), SEM, read-out: IP1 accumulation pEC50 ± S.E.M. (converted)
# T15 construct: The full-length human NMUR1 and NMUR2 were modified; expressed in transfected cells; host or cells: AD293 cells
# T15 sequence (Q9HB89 whole entry M121A): as the sequence (Q9HB89 whole entry Y125A) above, with M121A, A125Y counted along it
# Experimental: as §1, §2
# NMUR1 N124A = biological target: T16, NMUR1 N124A (Homo sapiens, UniProt Q9HB89, N124A); assay: IP-One assay, NMUR1 N124A; details: mean ± S.E.M., three independent experiments (n=3), SEM, read-out: IP1 accumulation pEC50 ± S.E.M. (converted)
# T16 construct: The full-length human NMUR1 and NMUR2 were modified; expressed in transfected cells; host or cells: AD293 cells
# T16 sequence (Q9HB89 whole entry N124A): as the sequence (Q9HB89 whole entry Y125A) above, with N124A, A125Y counted along it
# Experimental: as §1, §2
# NMUR2 WT = biological target: T17, NMUR2 WT (Homo sapiens, UniProt Q9GZQ4); assay: IP-One assay, NMUR2 WT
# T17 construct: The full-length human NMUR1 and NMUR2 were modified; expressed in transfected cells; host or cells: AD293 cells
# T17 sequence (Q9GZQ4 whole entry): as the sequence (Q9GZQ4 whole entry Y317A) above, with A317Y counted along it
# Experimental: as §1, §2
# NMUR2 M106A = biological target: T18, NMUR2 M106A (Homo sapiens, UniProt Q9GZQ4, M106A); assay: IP-One assay, NMUR2 M106A; details: mean ± S.E.M., three independent experiments (n=3), SEM, read-out: IP1 accumulation pEC50 ± S.E.M. (converted)
# T18 construct: expressed in transfected cells; host or cells: AD293 cells
# T18 sequence (Q9GZQ4 whole entry M106A): as the sequence (Q9GZQ4 whole entry Y317A) above, with M106A, A317Y counted along it
# Experimental: as §1, §2
# NMUR2 W297A = biological target: T19, NMUR2 W297A (Homo sapiens, UniProt Q9GZQ4, W297A); assay: IP-One assay, NMUR2 W297A; details: mean ± S.E.M., three independent experiments (n=3), SEM, read-out: IP1 accumulation pEC50 ± S.E.M. (converted)
# T19 construct: expressed in transfected cells; host or cells: AD293 cells
# T19 sequence (Q9GZQ4 whole entry W297A): as the sequence (Q9GZQ4 whole entry Y317A) above, with W297A, A317Y counted along it
# Experimental: as §1, §2
# NMUR1 E120A = biological target: T20, NMUR1 E120A (Homo sapiens, UniProt Q9HB89, E120A); assay: IP-One assay, NMUR1 E120A; details: mean ± S.E.M., three independent experiments (n=3), SEM, read-out: IP1 accumulation pEC50 ± S.E.M. (converted)
# T20 construct: The full-length human NMUR1 and NMUR2 were modified; expressed in transfected cells; host or cells: AD293 cells
# T20 sequence (Q9HB89 whole entry E120A): as the sequence (Q9HB89 whole entry Y125A) above, with E120A, A125Y counted along it
# Experimental: as §1, §2
# NMUR1 F345A = biological target: T21, NMUR1 F345A (Homo sapiens, UniProt Q9HB89, F345A); assay: IP-One assay, NMUR1 F345A; details: mean ± S.E.M., three independent experiments (n=3), SEM, read-out: IP1 accumulation pEC50 ± S.E.M. (converted)
# T21 construct: The full-length human NMUR1 and NMUR2 were modified; expressed in transfected cells; host or cells: AD293 cells
# T21 sequence (Q9HB89 whole entry F345A): as the sequence (Q9HB89 whole entry Y125A) above, with A125Y, F345A counted along it
# Experimental: as §1, §2
# NMUR2 N181A = biological target: T22, NMUR2 N181A (Homo sapiens, UniProt Q9GZQ4, N181A); assay: IP-One assay, NMUR2 N181A; details: mean ± S.E.M., three independent experiments (n=3), SEM, read-out: IP1 accumulation pEC50 ± S.E.M. (converted)
# T22 construct: expressed in transfected cells; host or cells: AD293 cells
# T22 sequence (Q9GZQ4 whole entry N181A): as the sequence (Q9GZQ4 whole entry Y317A) above, with N181A, A317Y counted along it
# Experimental: as §1, §2
# NMUR1 Y346A = biological target: T23, NMUR1 Y346A (Homo sapiens, UniProt Q9HB89, Y346A); assay: IP-One assay, NMUR1 Y346A; details: mean ± S.E.M., three independent experiments (n=3), SEM, read-out: IP1 accumulation pEC50 ± S.E.M. (converted)
# T23 construct: The full-length human NMUR1 and NMUR2 were modified; expressed in transfected cells; host or cells: AD293 cells
# T23 sequence (Q9HB89 whole entry Y346A): as the sequence (Q9HB89 whole entry Y125A) above, with A125Y, Y346A counted along it
# Experimental: as §1, §2
# NMUR2 Y110A = biological target: T24, NMUR2 Y110A (Homo sapiens, UniProt Q9GZQ4, Y110A); assay: IP-One assay, NMUR2 Y110A; details: mean ± S.E.M., three independent experiments (n=3), SEM, read-out: IP1 accumulation pEC50 ± S.E.M. (converted)
# T24 construct: expressed in transfected cells; host or cells: AD293 cells
# T24 sequence (Q9GZQ4 whole entry Y110A): as the sequence (Q9GZQ4 whole entry Y317A) above, with Y110A, A317Y counted along it
# Experimental: as §1, §2
# NMUR2 E127A = biological target: T25, NMUR2 E127A (Homo sapiens, UniProt Q9GZQ4, E127A); assay: IP-One assay, NMUR2 E127A; details: mean ± S.E.M., three independent experiments (n=3), SEM, read-out: IP1 accumulation pEC50 ± S.E.M. (converted)
# T25 construct: expressed in transfected cells; host or cells: AD293 cells
# T25 sequence (Q9GZQ4 whole entry E127A): as the sequence (Q9GZQ4 whole entry Y317A) above, with E127A, A317Y counted along it
# Experimental: as §1, §2
substance,measurement,setting,value
"FRVDEEFQSPFASQSRGYFLFRPRN-NH2 [NMU, neuromedin U]",EC50,NMUR2 Y317A,0.00263 µM
same,EC50,NMUR1 Y125A,0.02 µM
same,EC50,NMUR2 F126A,0.002 µM
same,EC50,NMUR2 F291A,0.00468 µM
same,EC50,NMUR2 Y213A,0.00724 µM
same,EC50,NMUR2 A302G,0.0708 µM
same,EC50,NMUR1 D316A,0.0105 µM
same,EC50,NMUR2 Y52A,0.001 µM
same,EC50,NMUR1 H331A,0.0115 µM
same,EC50,NMUR2 N306A,0.01 µM
same,EC50,NMUR2 R288A,0.0331 µM
same,EC50,NMUR1 F141A,0.115 µM
same,EC50,NMUR2 F305A,0.0123 µM
same,EC50,NMUR2 T203A,0.000891 µM
same,EC50,NMUR1 M121A,0.0513 µM
same,EC50,NMUR1 N124A,0.00692 µM
same,EC50,"NMUR2 WT; NMUR2 WT, mean ± S.E.M., three independent experiments (n=3), SEM, read-out: IP1 accumulation pEC50 ± S.E.M. (converted)",0.000631 µM
same,EC50,"NMUR2 WT; WT NMUR2, Supplementary Fig. 1, three independent experiments, read-out: pEC50 of NMU (converted)",0.00302 µM
same,EC50,NMUR2 M106A,0.0195 µM
same,EC50,NMUR2 W297A,0.0661 µM
same,EC50,NMUR1 E120A,0.0107 µM
same,EC50,NMUR1 F345A,1.48 µM
same,EC50,NMUR2 N181A,0.00275 µM
same,EC50,NMUR1 Y346A,0.155 µM
same,EC50,NMUR2 Y110A,0.186 µM
same,EC50,NMUR2 E127A,0.0437 µM

# — article PMC9019041, “Structural insights into the peptide selectivity and activation of human neuromedin U receptors” (Nature Communications, 2022)
